Test results published in the NIST ThermoML archive (doi:10.1016/j.jct.2013.05.024).

Settings: 101.3 kPa, Liquid, Vibrating tube method

CCOC(=O)C(=O)OCC [diethyl ethanedioate]
Settings	mass density [kg/m3]
278.15 K	1095.94
288.14 K	1084.24
298.15 K	1072.53
313.15 K	1054.92
328.15 K	1037.26
338.15 K	1025.42
348.15 K	1013.53
358.15 K	1001.6
